Assay results reported in patent publication US20180000778A1, “SMALL MOLECULE ANTAGONISTS OF DUSP5 AND METHODS OF USE” (THE MEDICAL COLLEGE OF WISCONSIN, INC., priority 2015, published 2018).

Legend:
[1] = test system: pERK levels in HUVEC cells; assay: pERK levels in HUVEC cells, western blot; format: cell-based, Human; conditions: HUVECs incubated 2 hours, pERK relative to total ERK; Na3VO4 at 200 μM
Experimental: Cell Culture and Western Blots.
Human Umbilical Vein Endothelial Cells (HUVECs) were maintained in EBM2 media (Lonza, CC-3156) supplemented with a combined serum and growth factor kit (Lonza, CC-4176). Cells were incubated with the indicated concentrations of drug for 2 h and lysed with RIPA buffer (Sigma, R0278) on ice. Cell lysates were cleared by centrifugation at 16,300×g for 30 min. The resulting supernatants were isolated and protein concentration determined by Lowry assay (DC protein assay, BioRad). 2× laemmli sample buffer was added to equal amounts of protein and separated by SDS-PAGE. The protein gels were transferred to polyvinylidene difluoride (PVDF) and immunoblotted using antibodies to phosphorylated ERK (Cell Signaling, #9106) and total ERK (Cell Signaling, #9102). Bound antibodies were visualized using horseradish peroxidase-linked anti-rabbit IgG, anti-mouse IgG (Cell Signaling Tech., #7074 and #7076) and ECL reagents (Thermo Scientific, 34080) according to the manufacturer's protocol.

PTPN11 (SHP2) = PTPN11 (SHP2) (Homo sapiens, UniProt Q06124); assay: Phosphatase profiling, Biomol Green; format: biochemical; conditions: 30 μM, triplicate; positive = activation
Experimental: (§1) Assays were performed to profile compound CSDDD2320 against 21 phosphatase targets at 1 concentration (30 μM) in triplicate measurements. The aim was to identify whether the compound can affect the activity of the various phosphatase targets selected.
(§2) The PTPN6 (SHP1), PTPRF (LAR), PP1A, PP1B, PP2A, PTPN12(PTP-PEST), PTPN11(SHP2), CDC25A, CDC25B, CDC25C, PP2Ca, and PP2Cg phosphatase activity was determined by performing assays at 37° C. for 15 minutes in a final volume of 50 μl according to the following assay reaction recipe:
(§3) Component 1. 10 μl of diluted active protein phosphatase
(§4) Component 2. 5 μl of 1 mM tyrosine phosphopeptide-2 substrate (for PTPN6, PTPRF, PTPN12, and PTPN11) or threonine phosphopeptide substrate (for PP1A, PP1B, PP2A and PP2Cg) or PI(3,4,5)P3 substrate (for PTEN) or OMFP substrate (for CDC25A, CDC25B and CDC25C)
(§5) Component 3. 25 μl of phosphatase assay buffer
(§6) Component 4. 10 μl of compound (150 μM) or 10% DMSO
(§7) The assay was started by incubating the reaction mixture at 37° C. for 15 minutes. After the 15 minutes incubation period, the assay was terminated by the addition of 100 μl of Biomol Green reagent. The absorbance of the reaction solution was measured in a spectrophotometer at 650 nm. Blank control was set up that included all the assay components except the addition of the tyrosine phosphopeptide-2 substrate or related substrate (replace with equal volume of phosphatase assay buffer). The corrected activity for various phosphatase targets was determined by removing the blank control value.

PP2A = assay: Phosphatase profiling, Biomol Green; format: biochemical; conditions: 30 μM, triplicate; negative = inhibition
Experimental: as §1, §2, §3, §4, §5, §6, §7

PP2Ca = PP2Ca (Homo sapiens, UniProt P35813); assay: Phosphatase profiling, Biomol Green; format: biochemical; conditions: 30 μM, triplicate; negative = inhibition
Experimental: as §1, §2, §3, §4, §5, §6, §7

CDC25A = CDC25A (Homo sapiens, UniProt P30304); assay: Phosphatase profiling, Biomol Green; format: biochemical; conditions: 30 μM, triplicate; positive = activation
Experimental: as §1, §2, §3, §4, §5, §6, §7

PTPN6 (SHP1) = PTPN6 (SHP1) (Homo sapiens, UniProt P29350); assay: Phosphatase profiling, Biomol Green; format: biochemical; conditions: 30 μM, triplicate; negative = inhibition
Experimental: as §1, §2, §3, §4, §5, §6, §7

PTPN13 (FAP-1) = PTPN13 (FAP-1) (Homo sapiens, UniProt Q12923); assay: Phosphatase profiling, pNPP substrate; format: biochemical; conditions: 30 μM, triplicate; positive = activation
Experimental: as §1
(§8) Protein Phosphatase Assay: The DUSP22, PTPN2 (TC-PTP), PTPN7 (LC-PTP), PTPRA (LRP), PTPRC (CD45), PTPRE, PTPRS, PTPN1(PTP1B) and PTPN13(FAP-1) phosphatase activity was determined by performing assays at 37° C. for 15 minutes in a final volume of 100 μl according to the following assay reaction recipe:
(§9) Component 1. 5 μl of diluted active protein phosphatase
(§10) Component 2. 50 μl of 1.5 mM pNPP substrate assay solution
as §5
(§11) Component 4. 20 μl of compound (150 μM) or 10% DMSO
(§12) The assay was started by incubating the reaction mixture at 37° C. for 15 minutes. After the 15 minute incubation period, the assay was terminated by the addition of 25 μl of 2N NaOH stopping solution. The absorbance of the reaction solution was measured in a spectrophotometer at 405 nm. Blank control was set up that included all the assay components except the addition of the pNPP substrate (replaced with equal volume of phosphatase assay buffer). The corrected activity for various phosphatase targets was determined by removing the blank control value.

PTPRA (LRP) = PTPRA (LRP) (Homo sapiens, UniProt P18433); assay: Phosphatase profiling, pNPP substrate; format: biochemical; conditions: 30 μM, triplicate; positive = activation
Experimental: as §1, §8, §9, §10, §5, §11, §12

PTPN2 (TC-PTP) = PTPN2 (TC-PTP) (Homo sapiens, UniProt P17706); assay: Phosphatase profiling, pNPP substrate; format: biochemical; conditions: 30 μM, triplicate; positive = activation
Experimental: as §1, §8, §9, §10, §5, §11, §12

PTPN1 (PTP1B) = PTPN1 (PTP1B) (Homo sapiens, UniProt P18031); assay: Phosphatase profiling, pNPP substrate; format: biochemical; conditions: 30 μM, triplicate; negative = inhibition
Experimental: as §1, §8, §9, §10, §5, §11, §12

PTPN7 (LC-PTP) = PTPN7 (LC-PTP) (Homo sapiens, UniProt P35236); assay: Phosphatase profiling, pNPP substrate; format: biochemical; conditions: 30 μM, triplicate; positive = activation
Experimental: as §1, §8, §9, §10, §5, §11, §12

DUSP22 (MKPX) = DUSP22 (MKPX) (Homo sapiens, UniProt Q9NRW4); assay: Phosphatase profiling, pNPP substrate; format: biochemical; conditions: 30 μM, triplicate; negative = inhibition; listed as CSDDD2320
Experimental: as §1, §8, §9, §10, §5, §11, §12

PTPRE = PTPRE (Homo sapiens, UniProt P23469); assay: Phosphatase profiling, pNPP substrate; format: biochemical; conditions: 30 μM, triplicate; negative = inhibition; listed as CSDDD2320
Experimental: as §1, §8, §9, §10, §5, §11, §12

PTPRC (CD45) = PTPRC (CD45) (Homo sapiens, UniProt P08575); assay: Phosphatase profiling, pNPP substrate; format: biochemical; conditions: 30 μM, triplicate; negative = inhibition; listed as CSDDD2320
Experimental: as §1, §8, §9, §10, §5, §11, §12

PTPRS (PTP-sigma) = PTPRS (PTP-sigma) (Homo sapiens, UniProt Q13332); assay: Phosphatase profiling, pNPP substrate; format: biochemical; conditions: 30 μM, triplicate; negative = inhibition
Experimental: as §1, §8, §9, §10, §5, §11, §12

PTPRC (CD45), sequence (P08575 26-1306, species assumed): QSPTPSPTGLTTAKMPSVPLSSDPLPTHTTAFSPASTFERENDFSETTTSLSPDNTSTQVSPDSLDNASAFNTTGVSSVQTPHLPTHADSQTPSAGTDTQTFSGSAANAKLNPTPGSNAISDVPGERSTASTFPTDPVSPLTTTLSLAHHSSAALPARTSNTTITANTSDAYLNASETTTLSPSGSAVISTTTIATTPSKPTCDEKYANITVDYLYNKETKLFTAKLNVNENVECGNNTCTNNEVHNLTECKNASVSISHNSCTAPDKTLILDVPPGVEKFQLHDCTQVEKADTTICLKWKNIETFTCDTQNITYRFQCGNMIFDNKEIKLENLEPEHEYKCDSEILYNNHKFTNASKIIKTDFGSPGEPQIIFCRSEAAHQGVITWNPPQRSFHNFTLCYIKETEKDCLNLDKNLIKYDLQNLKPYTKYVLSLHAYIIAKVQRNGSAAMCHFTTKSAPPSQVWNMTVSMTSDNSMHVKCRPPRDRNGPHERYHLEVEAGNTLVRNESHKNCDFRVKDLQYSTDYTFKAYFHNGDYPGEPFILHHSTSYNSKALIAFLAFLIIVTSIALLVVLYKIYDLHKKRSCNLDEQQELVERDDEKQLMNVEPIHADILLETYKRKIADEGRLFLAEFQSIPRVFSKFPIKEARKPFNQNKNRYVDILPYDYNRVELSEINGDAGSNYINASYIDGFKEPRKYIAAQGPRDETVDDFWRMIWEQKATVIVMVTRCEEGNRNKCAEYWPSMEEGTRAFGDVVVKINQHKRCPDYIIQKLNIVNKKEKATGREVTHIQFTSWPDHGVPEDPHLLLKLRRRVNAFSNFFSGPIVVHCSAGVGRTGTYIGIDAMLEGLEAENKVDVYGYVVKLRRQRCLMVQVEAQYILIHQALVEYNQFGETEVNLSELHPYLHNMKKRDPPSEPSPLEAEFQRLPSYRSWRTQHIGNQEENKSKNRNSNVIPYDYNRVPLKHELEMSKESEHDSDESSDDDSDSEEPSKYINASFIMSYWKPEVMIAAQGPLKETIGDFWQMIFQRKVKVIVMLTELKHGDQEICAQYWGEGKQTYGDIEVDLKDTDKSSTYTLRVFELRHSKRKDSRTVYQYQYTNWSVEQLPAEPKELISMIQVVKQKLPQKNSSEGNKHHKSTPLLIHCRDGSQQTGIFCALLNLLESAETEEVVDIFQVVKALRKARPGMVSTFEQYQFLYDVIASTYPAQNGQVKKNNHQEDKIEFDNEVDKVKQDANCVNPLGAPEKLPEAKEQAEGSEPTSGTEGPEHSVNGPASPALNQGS
PTPRE, sequence (P23469 20-700, species assumed): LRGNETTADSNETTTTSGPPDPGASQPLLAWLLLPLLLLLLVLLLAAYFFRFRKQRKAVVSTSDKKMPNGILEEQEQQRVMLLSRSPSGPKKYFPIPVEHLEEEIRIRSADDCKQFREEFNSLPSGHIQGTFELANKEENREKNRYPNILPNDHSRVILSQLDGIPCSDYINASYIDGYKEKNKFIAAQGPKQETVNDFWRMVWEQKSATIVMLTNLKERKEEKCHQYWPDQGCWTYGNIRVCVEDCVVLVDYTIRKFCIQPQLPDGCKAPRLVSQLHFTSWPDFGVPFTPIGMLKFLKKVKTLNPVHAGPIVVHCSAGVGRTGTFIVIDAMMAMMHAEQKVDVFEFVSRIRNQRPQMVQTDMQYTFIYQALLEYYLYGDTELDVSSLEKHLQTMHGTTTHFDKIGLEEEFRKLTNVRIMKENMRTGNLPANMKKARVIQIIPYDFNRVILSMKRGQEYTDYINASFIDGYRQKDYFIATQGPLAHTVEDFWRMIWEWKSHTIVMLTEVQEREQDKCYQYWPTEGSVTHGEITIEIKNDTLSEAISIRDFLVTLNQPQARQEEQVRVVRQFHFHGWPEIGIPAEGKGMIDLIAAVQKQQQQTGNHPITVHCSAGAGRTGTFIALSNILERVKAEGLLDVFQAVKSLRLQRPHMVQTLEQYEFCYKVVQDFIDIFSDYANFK
DUSP22 (MKPX), sequence (Q9NRW4 whole entry, species assumed): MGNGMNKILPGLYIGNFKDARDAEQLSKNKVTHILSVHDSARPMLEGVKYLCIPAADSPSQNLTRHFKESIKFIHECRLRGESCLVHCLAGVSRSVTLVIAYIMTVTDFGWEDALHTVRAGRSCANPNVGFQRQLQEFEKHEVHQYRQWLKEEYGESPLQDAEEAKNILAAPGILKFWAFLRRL
PP2Ca, sequence (P35813 whole entry): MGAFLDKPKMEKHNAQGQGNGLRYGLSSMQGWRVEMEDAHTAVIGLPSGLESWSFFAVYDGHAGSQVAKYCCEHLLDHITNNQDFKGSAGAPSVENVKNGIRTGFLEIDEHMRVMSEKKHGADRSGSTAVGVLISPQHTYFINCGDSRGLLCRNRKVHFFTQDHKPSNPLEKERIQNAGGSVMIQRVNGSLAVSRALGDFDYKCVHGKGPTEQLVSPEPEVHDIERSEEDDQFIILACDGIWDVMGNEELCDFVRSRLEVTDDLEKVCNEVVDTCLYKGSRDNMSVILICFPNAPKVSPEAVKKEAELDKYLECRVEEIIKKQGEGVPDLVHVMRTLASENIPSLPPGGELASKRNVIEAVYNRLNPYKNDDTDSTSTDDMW
PTPN1 (PTP1B), sequence (P18031 whole entry, species assumed): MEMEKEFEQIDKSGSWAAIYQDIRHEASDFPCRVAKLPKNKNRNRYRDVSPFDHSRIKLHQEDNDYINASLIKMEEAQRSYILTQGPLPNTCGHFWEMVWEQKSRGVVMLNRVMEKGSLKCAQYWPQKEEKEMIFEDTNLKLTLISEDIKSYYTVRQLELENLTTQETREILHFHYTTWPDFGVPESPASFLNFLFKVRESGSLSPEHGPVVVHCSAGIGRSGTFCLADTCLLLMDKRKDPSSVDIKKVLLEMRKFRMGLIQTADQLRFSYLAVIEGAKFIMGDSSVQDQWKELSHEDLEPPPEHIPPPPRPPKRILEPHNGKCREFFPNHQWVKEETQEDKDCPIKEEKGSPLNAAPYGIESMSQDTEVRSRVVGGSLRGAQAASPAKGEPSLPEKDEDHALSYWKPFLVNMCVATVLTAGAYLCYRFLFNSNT
PTPRS (PTP-sigma), sequence (Q13332 30-1948, species assumed): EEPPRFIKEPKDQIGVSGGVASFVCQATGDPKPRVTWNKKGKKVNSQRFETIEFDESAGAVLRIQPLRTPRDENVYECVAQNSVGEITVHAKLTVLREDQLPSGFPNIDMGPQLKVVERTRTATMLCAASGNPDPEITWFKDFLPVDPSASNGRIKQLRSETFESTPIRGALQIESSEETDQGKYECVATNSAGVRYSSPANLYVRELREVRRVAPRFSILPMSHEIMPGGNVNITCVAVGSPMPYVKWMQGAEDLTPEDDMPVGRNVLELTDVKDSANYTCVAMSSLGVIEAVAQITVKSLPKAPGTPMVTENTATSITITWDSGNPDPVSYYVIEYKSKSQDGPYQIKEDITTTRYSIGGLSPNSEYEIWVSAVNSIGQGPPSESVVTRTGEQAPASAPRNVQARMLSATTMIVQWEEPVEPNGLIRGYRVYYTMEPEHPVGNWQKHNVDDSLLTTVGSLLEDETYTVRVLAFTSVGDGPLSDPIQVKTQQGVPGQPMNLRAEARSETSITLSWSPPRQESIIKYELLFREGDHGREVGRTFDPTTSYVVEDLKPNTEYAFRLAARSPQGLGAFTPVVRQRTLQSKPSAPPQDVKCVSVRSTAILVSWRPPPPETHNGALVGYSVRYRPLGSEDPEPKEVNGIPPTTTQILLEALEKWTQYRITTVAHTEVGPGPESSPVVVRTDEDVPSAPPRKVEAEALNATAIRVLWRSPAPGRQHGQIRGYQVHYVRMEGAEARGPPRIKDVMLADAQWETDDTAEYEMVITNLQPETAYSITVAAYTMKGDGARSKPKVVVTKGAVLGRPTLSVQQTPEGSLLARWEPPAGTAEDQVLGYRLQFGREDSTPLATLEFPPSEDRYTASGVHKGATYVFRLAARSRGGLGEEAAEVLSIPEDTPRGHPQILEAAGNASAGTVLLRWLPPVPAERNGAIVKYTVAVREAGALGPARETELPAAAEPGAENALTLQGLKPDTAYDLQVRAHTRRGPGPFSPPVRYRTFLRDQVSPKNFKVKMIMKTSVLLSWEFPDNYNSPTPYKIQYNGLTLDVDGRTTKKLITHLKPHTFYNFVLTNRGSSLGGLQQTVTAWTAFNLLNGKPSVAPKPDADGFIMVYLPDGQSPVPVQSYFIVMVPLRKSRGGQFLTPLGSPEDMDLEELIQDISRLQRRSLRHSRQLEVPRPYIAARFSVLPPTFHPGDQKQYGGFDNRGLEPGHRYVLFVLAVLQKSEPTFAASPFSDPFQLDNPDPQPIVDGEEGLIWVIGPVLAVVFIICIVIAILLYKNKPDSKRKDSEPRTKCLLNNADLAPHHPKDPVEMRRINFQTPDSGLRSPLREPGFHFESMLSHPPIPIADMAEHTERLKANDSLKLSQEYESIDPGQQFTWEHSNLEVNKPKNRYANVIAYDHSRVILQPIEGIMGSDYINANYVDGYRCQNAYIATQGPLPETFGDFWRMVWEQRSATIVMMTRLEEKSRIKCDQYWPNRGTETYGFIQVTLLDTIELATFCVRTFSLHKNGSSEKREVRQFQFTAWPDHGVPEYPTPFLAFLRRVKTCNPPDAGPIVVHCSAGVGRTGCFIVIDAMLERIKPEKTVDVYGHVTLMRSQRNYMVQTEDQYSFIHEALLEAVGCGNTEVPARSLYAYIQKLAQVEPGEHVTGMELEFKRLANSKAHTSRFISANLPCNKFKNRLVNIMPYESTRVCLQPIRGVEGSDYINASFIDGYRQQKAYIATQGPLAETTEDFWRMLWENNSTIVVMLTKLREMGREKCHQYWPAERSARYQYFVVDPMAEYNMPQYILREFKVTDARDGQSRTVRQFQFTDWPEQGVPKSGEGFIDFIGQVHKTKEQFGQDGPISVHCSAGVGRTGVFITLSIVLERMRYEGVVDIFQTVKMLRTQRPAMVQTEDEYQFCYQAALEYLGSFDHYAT

SMILES	effect on pERK levels [1]	% Change (activity change compared to control) (PTPN11 (SHP2))	% Change (activity change compared to control) (PP2A)	% Change (activity change compared to control) (PP2Ca)	% Change (activity change compared to control) (CDC25A)	% Change (activity change compared to control) (PTPN6 (SHP1))	% Change (activity change compared to control) (PTPN13 (FAP-1))	% Change (activity change compared to control) (PTPRA (LRP))	% Change (activity change compared to control) (PTPN2 (TC-PTP))	% Change (activity change compared to control) (PTPN1 (PTP1B))	% Change (activity change compared to control) (PTPN7 (LC-PTP))	% Change (activity change compared to control) (DUSP22 (MKPX))	% Change (activity change compared to control) (PTPRE)	% Change (activity change compared to control) (PTPRC (CD45))	% Change (activity change compared to control) (PTPRS (PTP-sigma))
O=S(=O)([O-])c1ccc2[nH]c3c(S(=O)(=O)[O-])cc(S(=O)(=O)[O-])cc3c2c1.[Na+].[Na+].[Na+] [RR505, Carbazole-1,3,6-trisulfonic acid, Trisodium Salt]	do not show biologically useful levels of potency														
O=S(=O)(O)c1cc(O)c2c(S(=O)(=O)O)cccc2c1 [RR527]		4%	−3%	−7%	7%	−5%	6%	5%	2%	−4%	7%	−13%	−11%	−12%	−6%
